The subject of series [1] is AsPC-1 pancreatic cancer cells. The series is described as follows: Cytotoxicity of test articles (TC50), MTT assay. It counts as cell-based, Human. Conditions: concentration at which cell viability was reduced to 50%. The method, then:
The human pancreatic carcinoma cell lines, AsPC-1, PANC-1 and CaPan-2 were seeded 3×10^4 cells per well and cultured in a forty-eight (48) well cell culture dish (growth area 0.95 cm^2 per well). Sixteen (16) hours later, cells were treated Compound 1 alone or Compound 1 with a clinical chemotherapy drug, respectively. After 48 or 72 hours of the treatment, methylthiazoletetrazolium (MTT) assay (supplemental protocol-1) was performed to measure the effect of treatment on the viability of cells during proliferation.
B. Cell Preparation • 1. Remove and discard culture medium. • 2. Briefly rinse the cell layer with 5 mL HBSS. Gently shake and remove the HBSS. • 3. Add 5 mL trypsin-EDTA to 15 cm^2 polystyrene dishes. Incubate 5 mins at 37° C. in a humidified incubator with 95% air/5% CO2 atmosphere. • 4. Add 5 mL of complete growth medium (DMEM medium containing 10% FBS) and aspirate cells by gently pipetting. • 5. Count live cells using the trypan blue exclusion assay (supplemental protocol-2) with a hemocytometer. • 6. For in vitro study, cells will be seeded 3×10^4 cells per well and cultured in a forty-eight (48) wells cell culture dish for sixteen (16) hours until treatment. • 7. Incubate cultures at 37° C.
a. Cytotoxicity of test articles (TC50): AsPC-1 was seeded 3×10^4 cells (counted by Cell counter, LUNA™ Automated Cell Counter or hemocytometer) per well and cultured in a 48 wells cell culture dish. Cells were treated with single article from 400 or 800 μM with serial dilution to 0 μM. After 48 or 72 hours of treated, MTT assay was performed to measure the effect of treatment on the viability of AsPC-1 cells during proliferation. The absorbance at 595 nm was measured using a microplate reader (BioTEK, Synergy™ H1). Article sensitivity curves and TC50 values were calculated using GraphPad Prism 4.0 software.
(Tetrazolium assays rely on reduction of a dye to a coloured formazan, in cell work by metabolically active cells.)

Series [2] deals with advanced pancreatic cancer. Conditions: patients with advanced pancreatic cancer; cited from earlier work.
Series [3] has as its system metastatic pancreatic adenocarcinoma. The note with it: previously untreated metastatic pancreatic adenocarcinoma; cited from earlier work.
The test system of series [4] is advanced pancreatic cancer. Conditions: people with advanced pancreatic cancer; cited from earlier work.
[5] abbreviates: Homo sapiens, ASPC1, AsPC-1 cells, 48 hrs.
Where [6] appears, read: Homo sapiens, ASPC1, AsPC-1 cells, 72 hrs.

Some results are limits rather than exact numbers.

What is called CC50 is the concentration giving 50% cytotoxicity. Turning to `O=c1[nH]cc(F)c(=O)[nH]1` [Compound 5-FU, 5-Fluorouracil], the CC50 in series [1] (setting [5]) and in series [1] (setting [6]) was greater than 800 µM each time.
For the compound `C#Cc1cccc(Nc2ncnc3cc(OCCOC)c(OCCOC)cc23)c1` [Erlotinib], the CC50 in series [1] (setting [5]) and in series [1] (setting [6]) was greater than 800 µM throughout.
Consider `Nc1ccn([C@@H]2O[C@H](CO)[C@@H](O)C2(F)F)c(=O)n1` [Gemcitabine], for which the CC50 in series [1] (setting [5]) was greater than 800 µM. Besides, the CC50 in series [1] (setting [6]) was greater than 800 µM. Besides, in series [2], the “Median progression-free survival (PFS)” value is 3.3 months and the “median overall survival (OS)” value is 6.8 months. Further, in series [3], the “Median PFS” value is on record as 3.7 months and the “median OS” value was 6.7 months. In series [4], the “improvement in median survival duration” value is 5 week.
On to `CCc1c2c(nc3ccc(OC(=O)N4CCC(N5CCCCC5)CC4)cc13)-c1cc3c(c(=O)n1C2)COC(=O)[C@]3(O)CC` [Irinotecan], for which the CC50 in series [1] (setting [5]) amounted to 221 µM; in series [1] (setting [6]), 68.3 µM.
In the case of `O=C1[O][Pt]2([NH][C@@H]3CCCC[C@H]3[NH]2)[O]C1=O` [Oxaliplatin], the CC50 in series [1] (AsPC-1 cells, 48 hrs) came out at 655 µM; in series [1] (AsPC-1 cells, 72 hrs) it was 57.9 µM.
Regarding `CC(=O)O[C@H]1C(=O)[C@@]2(C)[C@H]([C@H](OC(=O)c3ccccc3)[C@]3(O)C[C@H](OC(=O)[C@H](O)[C@@H](NC(=O)c4ccccc4)c4ccccc4)C(C)=C1C3(C)C)[C@]1(OC(C)=O)CO[C@@H]1C[C@@H]2O` [Paclitaxel], the CC50 in series [1] (setting [5]) was determined as 7.05 µM; in series [1] (setting [6]), 3.72 µM.

The values above are taken from US11406605B2, “Therapeutic compositions for treating pancreatic cancer” (Golden Biotechnology Corporation, priority 2017, dated 2022).
